The text below walks through data of patent publication US9604988B2, “Agent for treating or inhibiting recurrence of acute myeloid leukemia” (RIKEN, priority 2012, dated 2017).

The target in one series is HCK (Homo sapiens, UniProt P08631). The series is described as follows: HCK kinase inhibition. Format: biochemical.
In a further series the target is T1, FLT3-ITD (Homo sapiens, UniProt P36888, ITD).
T1 sequence (P36888 27-993): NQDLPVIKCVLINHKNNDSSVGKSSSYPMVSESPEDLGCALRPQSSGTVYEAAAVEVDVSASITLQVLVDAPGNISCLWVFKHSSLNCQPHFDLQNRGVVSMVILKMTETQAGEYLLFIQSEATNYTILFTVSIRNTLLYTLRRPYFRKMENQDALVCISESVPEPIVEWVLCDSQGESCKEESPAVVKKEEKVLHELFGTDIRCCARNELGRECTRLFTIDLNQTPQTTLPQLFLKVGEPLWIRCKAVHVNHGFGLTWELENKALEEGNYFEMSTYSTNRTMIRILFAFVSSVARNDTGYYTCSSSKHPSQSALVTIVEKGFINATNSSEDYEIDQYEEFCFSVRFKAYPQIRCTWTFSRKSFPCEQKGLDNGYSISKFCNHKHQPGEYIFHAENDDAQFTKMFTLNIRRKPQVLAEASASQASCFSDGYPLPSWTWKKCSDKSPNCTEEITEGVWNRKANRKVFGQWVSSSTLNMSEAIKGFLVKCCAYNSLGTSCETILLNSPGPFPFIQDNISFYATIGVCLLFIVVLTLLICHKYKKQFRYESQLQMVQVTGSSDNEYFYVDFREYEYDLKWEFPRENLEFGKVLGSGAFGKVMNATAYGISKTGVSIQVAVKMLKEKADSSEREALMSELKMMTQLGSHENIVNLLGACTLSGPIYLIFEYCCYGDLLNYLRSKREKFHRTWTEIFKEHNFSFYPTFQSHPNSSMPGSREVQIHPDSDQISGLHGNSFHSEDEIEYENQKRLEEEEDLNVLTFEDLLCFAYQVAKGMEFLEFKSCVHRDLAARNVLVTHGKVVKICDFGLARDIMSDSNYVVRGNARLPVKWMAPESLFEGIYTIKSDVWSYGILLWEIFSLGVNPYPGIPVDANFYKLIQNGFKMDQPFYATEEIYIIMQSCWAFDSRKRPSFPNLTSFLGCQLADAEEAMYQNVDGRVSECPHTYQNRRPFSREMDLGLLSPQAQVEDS
The series is described as follows: FLT3-ITD kinase inhibition. Format: biochemical.

A further series addresses hERG (Homo sapiens, UniProt Q12809). The series is described as follows: hERG inhibition (automated patch-clamp). Format: cell-based.

SMILES strings stand for the structures.

Chain of hERG (Q12809 whole entry): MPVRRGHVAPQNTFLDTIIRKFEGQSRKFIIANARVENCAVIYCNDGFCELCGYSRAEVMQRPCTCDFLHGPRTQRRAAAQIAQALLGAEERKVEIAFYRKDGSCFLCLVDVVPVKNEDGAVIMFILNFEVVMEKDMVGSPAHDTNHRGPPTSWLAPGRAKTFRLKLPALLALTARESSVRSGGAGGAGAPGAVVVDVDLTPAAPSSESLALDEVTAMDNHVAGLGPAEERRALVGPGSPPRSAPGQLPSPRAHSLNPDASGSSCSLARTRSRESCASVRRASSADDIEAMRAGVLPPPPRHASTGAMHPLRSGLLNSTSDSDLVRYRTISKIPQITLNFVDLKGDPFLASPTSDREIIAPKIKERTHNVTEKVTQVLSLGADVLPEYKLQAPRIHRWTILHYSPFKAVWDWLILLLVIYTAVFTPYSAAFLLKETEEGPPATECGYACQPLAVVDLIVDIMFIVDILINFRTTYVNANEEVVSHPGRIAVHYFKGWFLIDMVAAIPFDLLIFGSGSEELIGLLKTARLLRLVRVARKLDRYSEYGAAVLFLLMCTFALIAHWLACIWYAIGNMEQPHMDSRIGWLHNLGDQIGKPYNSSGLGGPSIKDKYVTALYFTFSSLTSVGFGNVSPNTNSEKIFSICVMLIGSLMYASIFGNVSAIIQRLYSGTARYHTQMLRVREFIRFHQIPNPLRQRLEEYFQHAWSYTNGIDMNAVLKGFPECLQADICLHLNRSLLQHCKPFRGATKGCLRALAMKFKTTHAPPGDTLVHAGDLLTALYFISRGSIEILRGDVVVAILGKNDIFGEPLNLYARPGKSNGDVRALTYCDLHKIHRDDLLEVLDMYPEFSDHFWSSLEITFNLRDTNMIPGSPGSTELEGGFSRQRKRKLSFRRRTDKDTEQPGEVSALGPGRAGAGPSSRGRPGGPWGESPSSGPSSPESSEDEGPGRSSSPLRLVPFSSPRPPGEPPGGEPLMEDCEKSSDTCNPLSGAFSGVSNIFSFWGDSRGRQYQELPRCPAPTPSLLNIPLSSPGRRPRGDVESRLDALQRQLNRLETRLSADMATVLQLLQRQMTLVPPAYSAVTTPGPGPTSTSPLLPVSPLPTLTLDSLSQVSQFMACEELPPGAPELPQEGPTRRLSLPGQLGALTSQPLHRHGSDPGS
Chain of HCK (P08631 whole entry): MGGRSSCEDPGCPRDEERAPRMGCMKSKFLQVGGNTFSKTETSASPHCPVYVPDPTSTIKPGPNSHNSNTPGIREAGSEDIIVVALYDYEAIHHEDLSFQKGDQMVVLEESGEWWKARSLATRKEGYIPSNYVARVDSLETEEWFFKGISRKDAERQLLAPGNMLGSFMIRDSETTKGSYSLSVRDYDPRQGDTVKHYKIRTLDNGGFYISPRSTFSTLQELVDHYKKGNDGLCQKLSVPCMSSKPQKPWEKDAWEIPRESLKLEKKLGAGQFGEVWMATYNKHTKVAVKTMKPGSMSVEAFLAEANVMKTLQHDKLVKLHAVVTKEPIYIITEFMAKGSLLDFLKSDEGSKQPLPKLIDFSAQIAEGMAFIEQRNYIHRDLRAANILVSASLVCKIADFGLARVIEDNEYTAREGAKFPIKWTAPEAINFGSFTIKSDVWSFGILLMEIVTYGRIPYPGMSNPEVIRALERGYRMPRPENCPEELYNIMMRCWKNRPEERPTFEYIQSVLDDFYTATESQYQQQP

`CN1C2CCC1CN([C@H]1CC[C@H](n3nc(-c4ccc(NC(=O)c5ccccn5)cc4)c4c(N)ncnc43)CC1)C2` [Example 21, N-(4-(4-amino-1-((1r,4r)-4-(8-methyl-3,8-diazabicyclo[3.2.1]octan-3-yl)cyclohexyl)-1H-pyrazolo[3,4-d]pyrimidin-3-yl)phenyl)picolinamide]: the IC50 – broadly, the concentration at which inhibition is half-maximal – against HCK amounted to 4.7 nM; against FLT3-ITD, 1180 nM. Further, at 10 µM the inhibition at hERG was 48%.
On the same counts, the results for `Nc1ncnc2c1c(-c1ccc(Oc3ccccc3)cc1)nn2[C@H]1CC[C@H](NC(=O)c2cccnc2)CC1` [Example 22, N-((trans)-4-(4-amino-3-(4-phenoxyphenyl)-1H-pyrazolo[3,4-d]pyrimidin-1-yl)cyclohexyl)nicotinamide] are 20 nM, 190 nM and 50%.
For `CN1C2CCC1CN([C@H]1CC[C@H](n3nc(-c4ccc(NC(=O)c5cc6ccccc6n5C)cc4)c4c(N)ncnc43)CC1)C2` [Example 24, N-(4-(4-amino-1-((1r,4r)-4-(8-methyl-3,8-diazabicyclo[3.2.1]octan-3-yl)cyclohexyl)-1H-pyrazolo[3,4-d]pyrimidin-3-yl)phenyl)-1-methyl-1H-indole-2-carboxamide], the results for the IC50 on HCK and at FLT3-ITD were 9.73 nM and 3330 nM, respectively. Also, the inhibition (as a rule, the share of the control response that was lost under treatment) at 10 µM at hERG came out at 64%.
For `CN1C2CCC1CC(N1CCC(n3nc(-c4ccc(NC(=O)c5cc6ccccc6n5C)cc4)c4c(N)ncnc43)CC1)C2` (centres unmarked) [Example 25, N-(4-(4-amino-1-(1-(8-methyl-8-azabicyclo[3.2.1]octan-3-yl)piperidin-4-yl)-1H-pyrazolo[3,4-d]pyrimidin-3-yl)phenyl)-1-methyl-1H-indole-2-carboxamide], the IC50 against HCK was found to be 2.05 nM; against FLT3-ITD it was 2780 nM. This compound also gave an inhibition at 10 µM against hERG of 42%.
On to `COc1cc(-c2cn([C@H]3CC[C@H](N4CCN(C)CC4)CC3)c3ncnc(N)c23)ccc1NC(=O)c1cc2ccccc2n1C` [Example 27, N-(4-(4-amino-7-((trans)-4-(4-methylpiperazin-1-yl)cyclohexyl)-7H-pyrrolo[2,3-d]pyrimidin-5-yl)-2-methoxyphenyl)-1-methyl-1H-indole-2-carboxamide], for which the figures for the IC50 on HCK and against FLT3-ITD were 1.6 nM and 609 nM, respectively. The compound further returned an inhibition at 10 µM against hERG of 39.3%.
On the same counts, the results for `COc1cc(-c2nn([C@H]3CC[C@H](N4CCn5c(C)nnc5C4)CC3)c3ncnc(N)c23)ccc1NC(=O)c1cc2ccccc2n1C` [Example 29, N-(4-(4-amino-1-((trans)-4-(3-methyl-5,6-dihydro[1,2,4]triazolo[4,3-a]pyrazin-7(8H)-yl)cyclohexyl)-1H-pyrazolo[3,4-d]pyrimidin-3-yl)-2-methoxyphenyl)-1-methyl-1H-indole-2-carboxamide] are 1.8 nM, 1340 nM and 17.1%.
On to `COc1cc(-c2cn([C@H]3CC[C@H](N4CCn5c(cnc5C)C4)CC3)c3ncnc(N)c23)ccc1NC(=O)c1cc2ccccc2n1C` [Example 36, N-(4-(4-amino-7-((trans)-4-(3-methyl-5,6-dihydroimidazolo[1,5-a]pyrazin-7(8H)-yl)cyclohexyl)-7H-pyrrolo[2,3-d]pyrimidin-5-yl)-2-methoxyphenyl)-1-methyl-1H-indole-2-carboxamide], for which the results for the IC50 against HCK and against FLT3-ITD were 4 nM and 409 nM, respectively.
On the same counts, the results for `COc1cc(-c2cn([C@H]3CC[C@@H](N4CCn5nc(C)cc5C4)CC3)c3ncnc(N)c23)ccc1NC(=O)c1cc2ccccc2n1C` [Example 37, N-(4-(4-amino-7-((cis)-4-(2-methyl-6,7-dihydropyrazolo[1,5-a]pyrazin-5(4H)-yl)cyclohexyl)-7H-pyrrolo[2,3-d]pyrimidin-5-yl)-2-methoxyphenyl)-1-methyl-1H-indole-2-carboxamide] are 7.7 nM and 3330 nM.
For `COc1cc(-c2cn([C@H]3CC[C@@H](N4CCn5nccc5C4)CC3)c3ncnc(N)c23)ccc1NC(=O)c1cc2ccccc2n1C` [Example 38, N-(4-(4-amino-7-((cis)-4-(6,7-dihydropyrazolo[1,5-a]pyrazin-5(4H)-yl)cyclohexyl)-7H-pyrrolo[2,3-d]pyrimidin-5-yl)-2-methoxyphenyl)-1-methyl-1H-indole-2-carboxamide] the same measures were 2.8 nM and 6580 nM.
For `COc1cc(-c2cn([C@H]3CC[C@H](N4CCn5c(C)cnc5C4)CC3)c3ncnc(N)c23)ccc1NC(=O)c1cc2ccccc2n1C` [Example 39, N-(4-(4-amino-7-((trans)-4-(3-methyl-5,6-dihydroimidazo[1,2-a]pyrazin-7(8H)-yl)cyclohexyl)-7H-pyrrolo[2,3-d]pyrimidin-5-yl)-2-methoxyphenyl)-1-methyl-1H-indole-2-carboxamide] the same measures were 4 nM and 4620 nM.
Compound `Nc1ncnc2c1c(-c1ccc(Oc3ccccc3)cc1)cn2[C@H]1CC[C@H](N2CCN(CCO)CC2)CC1` [Example 41, 2-(4-((trans)-4-(4-Amino-5-(4-phenoxyphenyl)-7H-pyrrolo[2,3-d]pyrimidin-7-yl)cyclohexyl)piperazin-1-yl)ethan-1-ol] showed an IC50 on FLT3-ITD of 21 nM. The inhibition at 10 µM on hERG stood at 93%.
On the same counts, the results for `CC(C)N1CCN([C@H]2CC[C@H](n3cc(-c4ccc(Oc5ccccc5)cc4)c4c(N)ncnc43)CC2)CC1` [Example 42, 7-((trans)-4-(4-Isopropylpiperazin-1-yl)cyclohexyl)-5-(4-phenoxyphenyl)-7H-pyrrolo[2,3-d]pyrimidin-4-amine] are 22 nM and 88%.
On FLT3-ITD, `Nc1ncnc2c1c(-c1ccc(Oc3ccccc3)cc1)cn2[C@H]1CC[C@H](NCc2ccncc2)CC1` [Example 44, 5-(4-phenoxyphenyl)-7-((trans)-4-((pyridin-4-ylmethyl)amino)cyclohexyl)-7H-pyrrolo[2,3-d]pyrimidin-4-amine] returned an IC50 of 15 nM. The compound also displayed an inhibition at 10 µM against hERG of 93%.
For `Nc1ncnc2c1c(-c1ccc(Oc3ccccc3)cc1)cn2[C@H]1CC[C@@H](N[C@H]2CCNC2=O)CC1` [Example 53, (S)-3-(((cis)-4-(4-amino-5-(4-phenoxyphenyl)-7H-pyrrolo[2,3-d]pyrimidin-7-yl)cyclohexyl)amino)pyrrolidin-2-one], at FLT3-ITD, the midpoint of inhibition, the IC50, lay at 30 nM. For the same compound, 10 µM produced 97% inhibition against hERG.
Take `Nc1ncnc2c1c(-c1ccc(Oc3ccccc3)cc1)cn2[C@H]1CC[C@H](N2CCn3c(nnc3C(F)(F)F)C2)CC1` [Example 58, 5-(4-Phenoxyphenyl)-7-((trans)-4-(3-(trifluoromethyl)-5,6-dihydro[1,2,4]triazolo[4,3-a]pyrazin-7(8H)-yl)cyclohexyl)-7H-pyrrolo[2,3-d]pyrimidin-4-amine]: the IC50 was found to be 23 nM at HCK and 43 nM on FLT3-ITD.
On the same counts, the results for `CN1CCN([C@H]2CC[C@H](n3nc(-c4ccc(Oc5ccccc5)cc4)c4c(N)ncnc43)CC2)CC1` [Example 59, 1-((trans)-4-(4-Methylpiperazin-1-yl)cyclohexyl)-3-(4-phenoxyphenyl)-1H-pyrazolo[3,4-d]pyrimidin-4-amine] are 3 nM and 55 nM.
